From patent US11266743B2, “Peptide compositions and methods of use thereof” (priority 2017, dated 2022)
“Also recorded” adds a separate entry of the source.

What was measured:
Type in all cases: cell-based
[1] = system: P. aeruginosa biofilms; assay: Activity against P. aeruginosa biofilms; conditions: 25 μM
Method: Bacterial biofilm formation on implanted medical devices is a serious medical problem because these biofilms can lead to life-threatening systemic infections. We tested selected peptides and rationally designed variants against biofilms formed by P. aeruginosa. […] D-NOGCON reduces viable bacteria by 3.6 logs ( 1/3000 reduction) at 25 μM, while the best conventional antibiotic, Ciprofloxacin, reduced viable bacteria by only 1.7 logs ( 1/55 reduction) at 25 μM.

[2] = system: Hela pTRE-LucIVS2 cells; assay: ALAMARBLUE toxicity assay of CPP-PNA705; conditions: 10 μM CPP-PNA705 conjugate, after 24 hours
Method: CPP-PNA705 cytotoxicity was assessed using several methods known in the art. A Lactate Dehydrogenase (LDH) assay (FIG. 5A) measured the acute cytotoxicity and detects LDH released by cells because of membrane damage resulting from exposure to the CPPs. An ALAMARBLUE® assay (FIG. 5B) and a Bicinchoninic Acid (BCA) Assay (FIG. 5C) both measure the impact of exposure after 24 hours. In the ALAMARBLUE®, assay some reduction in metabolic activity was detected in Hela705 cells treated with 20 μM CPP-PNA705 concentrations for 1 hour.
Hela pTRE-LucIVS2 cells were plated in 96-well plates at 10,000 cells/well. After 24 hours, cells were treated with CPP constructs for 1 Hr in sfDMEM at 37° C., washed in PBS, and allowed to recover for 24 hours in 100 μl complete media. 10 μl ALAMARBLUE® (ThermoFisher) was added to each well and cells were incubated fo4r 2 Hrs at 37° C. Reduction of ALAMARBLUE® was determined by fluorescence at […].

[3] = system: HeLa, RAW264.7, HepG2, and MCF-7 cells; assay: TAMRA delivery assay (flow cytometry, confocal microscopy); conditions: 0.5 μM CPP-TA + 4.5 μM CPP-C, 30 minutes at 4° C., 22° C., or 37° C.
Method: To determine the effect of the PNA cargo on delivery, we labeled CPPs, lacking the PNA705 cargo, with the fluorophore TAMRA on a C-terminal cysteine residue (CPP-TA) and measured delivery to multiple cell types. TAMRA-labelled CPPs, mixed with unlabeled CPPs at a 1:10 ratio in serum-free DMEM for a final concentration of 5 μM total peptide, was added to HeLa, RAW264.7, HepG2, and MCF-7 cells in 12-well cell culture plates and incubated for 30 minutes at 4° C., 22° C., or 37° C. prior to flow cytometric analysis (FIGS. 9-16). […] Delivery of TAMRA was verified by confocal microscopy for each cell type.
Hela, RAW264.7, HCT116, HepG2, and MCF-7 cells were plated in 12-well plates at 100,000 cells/well. After 24 hours, cells were gently washed in PBS, topped with 500 μl of CPP-TA solution containing 0.5 μM CPP-TA+4.5 uM CPP-C in sfDMEM without phenol red, and incubated for 30 min at either 4° C., 23° C., or 37° C. The incubation solution was aspirated and cells were treated with 100 μl 0.025% Trypsin for 3 minutes at 23° C. 500 μl DMEM containing 2% FBS, 125 nM Sytox Green, and 20 mM HEPES was used to suspend the cells. Cells were transferred to a filter-topped flow cytometry tube and analyzed on a BD™ LSR II flow cytometer. Cells displaying a normal morphology were gated and first analyzed for GFP fluorescence using the 488 nM laser. GFP negative cells were used to generate a histogram of TAMRA fluorescence, measured with the 543 nM laser.
Cells were treated as described above for the TAMRA delivery assay and immediately imaged to avoid artifacts resulting from fixation. The distribution of TAMRA and Sytox Green was analyzed using a confocal scanning Nikon Eclipse Ti2 inverted microscope using a 40× oil-immersion objective. Sytox Green was excited using the 488 nM laser and TAMRA was excited using the 543 nM laser.

[4] = system: Hela pTRE-LucIVS2-705 cells; assay: PNA705 mediated luciferase splice correction (luminescence, RLU/μg protein)
Method: To assess nuclear cargo delivery and splice correction, PNA705 (SEQ ID NO: 11) was used. Luciferase production was quantified at both the protein (FIG. 6) and mRNA levels (FIG. 7). To quantify functional luciferase levels following splice correction, Hela pLuc705 cells were treated with a 2× serial dilution starting at 5 μM of CPP-PNA705 for 30 minutes in serum free DMEM at 37° C., washed in PBS, and allowed to recover for 24 hours in complete media. To assess the impact of endosomal entrapment and subsequent lysosomal degradation, some cells were co-treated with the endosomal acidification inhibitor chloroquine (120 μM) along with 5 μM CPP-PNA705. Cell lysates were assayed for luciferase by luminescence. To control for total cell density, lysates were also analyzed for total protein by the BCA assay.
Hela pTRE-LucIVS2-705 cells were seeded on flat-bottom 96-well plates at 10,000 cells per well in 200 μl complete DMEM. The following day, cells were washed in phosphate buffered saline and topped with premixed 50 μl 2× serum/phenol red free DMEM (Gibco)+50 μl peptide cleavage solution (ddH2O+peptide). Cells were transfected for 30 min at 37° C. with 5% CO2. The transfection solution was removed, cells were washed with PBS, and topped with 100 μl complete DMEM. The next day (24 hour recovery) cells were washed in PBS and lysed in 20 μl reporter lysis buffer (Promega E4030) following the manufacturers protocol. 10 μl of the lysate was removed and total protein concentration was determined using the bicinchoninic acid assay (Pierce BCA Protein Assay-ThermoFisher 23225). The 96-well plate containing the remaining 10 μl lysate was analyzed for luminescence using the Luciferase Assay System (Promega E1500) on a BioTek SYNERGY™ 2 plate reader with injector ports. Data was expressed as Relative Luminescence Units/μg Protein (RLU/μg Protein) and positive wells were defined as those whose RLU/μg Protein values exceeded the average for the plate by at least three standard deviations. […]

[5] = system: Hela cells stably transfected with mCherry and GFP1-10; assay: Split GFP assay (GFP-11 delivery); conditions: all concentrations and temperatures studied
Method: To test the ability of CPPs to deliver other cargoes, specifically a protease-sensitive peptide cargo, we modified the well-known split-GFP assay. CPPs were tested for the ability to deliver the polar 16-residue GFP-11 peptide across the membrane barrier. This peptide rescues the fluorescence of the cytosolic endogenous, non-fluorescent GFP1-10 protein. Here, we stably transfected Hela cells with a plasmid containing the full length mCherry and the non-fluorescent GFP1-10. Following incubation with CPP-GFP-11 constructs at multiple concentrations and temperatures for 30 minutes in serum free DMEM, cells were analyzed by flow cytometry for mCherry and GFP fluorescence (FIG. 17). Live cells expressing mCherry (˜50% of the total cells) were gated and their GFP fluorescence was analyzed. Unlike the luciferase splice correction assay where a single corrected mRNA transcript serves as template for many molecules of functional luciferase, the split GFP assay is stoichiometric; a single GFP-11 peptide can bind to a single GFP1-10 protein producing a finite fluorescent response.
Hela cells were transfected with p_mCherry-GFP1-10 (Addgene plasmid #78591) using LIPOFECTAMINE® 3000 (ThermoFisher). Single mCherry positive cells were sorted into 96-well plates using a BD™ FACSARIA™ cell sorter and colonies were maintained under G418 selection at […]. Stably transfected cells were plated in 12-well plates at 100,000 cells/well and grown overnight in complete DMEM. Cells were washed in PBS and incubated in 500 μl of CPP-GFP-11 solution at variable concentrations at 23° C. and 37° C. for 30 minutes. The CPP-GFP-11 solution was aspirated and 100 μl of 0.025% trypsin solution was added to each well. After detachment, cells were suspended in 500 μL of PBS+2% FBS and 20 mM HEPES. Cells were analyzed using a BD™ LSRII flow cytometer. Cells displaying a normal morphology were gated and first analyzed for mCherry fluorescence using the 543 nM laser. mCherry+ cells were used to generate a histogram of GFP fluorescence measured with the 488 nM laser.

Compound | reduction of viable bacteria in biofilm [1] | reduction in metabolic activity [2] | TAMRA delivery (words, rank order) [3] | efficiency of PNA705 delivery in cell culture (words, rank order) [4] | GFP-11 delivery [5]
O=C(O)c1cn(C2CC2)c2cc(N3CCNCC3)c(F)cc2c1=O [Ciprofloxacin, reference compound] | 1.7 logs | – | – | – | –
RKKRWFRRRRPKWKK [CPP-1] | – | 20% | CPP-2»CPP-3=CPP-1>CPP-4>TAT=penetratin | most efficient at PNA delivery | deliver GFP-11 to more cells than Tat and penetratin; also recorded: most efficient at GFP-11 delivery
RRKKIWFRRLRMK [CPP-4] | – | little effect | CPP-2»CPP-3=CPP-1>CPP-4>TAT=penetratin; also recorded: does not deliver GFP-11 or TAMRA significantly | successfully delivers PNA705 | does not deliver GFP-11 or TAMRA significantly
RRRRRRRRR [Arg9, reference compound] | – | – | – | much better than Tat | –
